One may read the Cmax as the maximum level reached in the sampled fluid or tissue. Broadly, the Tmax is the time at which the peak concentration occurs.

Read-outs that look alike come from different tables or passages of the source.

The nature of data set [1]: Plasma PK, Example B15 Part 1. The following applies: human, initial results; for Cmax / AUC(0-t): Day 7, geometric mean; for AUC(0-t): read-out: AUC0-24, ng × h/mL; for Tmax: Day 7, median. It counts as in vivo. The protocol:
This study was designed as a randomized, double-blind, placebo-controlled study in 48 healthy participants conducted in 2 parts. Part 1 has completed clinical conduct, and Part 2 is ongoing. In Part 1, 24 participants were randomized 1:1:1 to receive Compound 5 80 mg QD, Compound 5 160 mg QD, or placebo QD. A safety review committee reviewed the safety and PK data from Part 1 and recommended doses for Part 2. In Part 2, 24 participants were randomized 1:1:1 to receive Compound 5 320 mg QD (Compound 5 in the morning and matched placebo in the afternoon), Compound 5 160 mg twice daily (BID), or placebo BID. In both parts, samples of BALF were collected from the middle lobe or lingula via bronchoscopy prior to dosing (Day −1) and at 6 and 24 hours post morning dose on Day 7. BALF samples were assessed for TGF-β receptor kinase activity (pSMAD2/SMAD2) in pelleted cells (primarily alveolar macrophages) and additional cell material was used to measure TGF-β signaling pathway-related gene expression levels. Plasma samples were collected to measure Compound 5 concentrations and determine protein binding. Safety was monitored via open-ended AE inquiry and clinical chemistry, hematology, vital sign, and 12-lead ECG parameters.

Another data set concerns lung Col1a1 expression. The data set can be described thus: Precision cut lung slices of mice under chronic bleomycin exposure, Col1a1 expression (Example B9). It counts as cell-based, Mice (C57BL/6). The following applies: chronic bleomycin PCLS, 7 days culture, normalized to DMSO; FIG. 5B. The protocol:
Mice (C57BL/6) were administered 3 U/kg of bleomycin (Teva Pharmaceuticals; North Wales, Pa.) on Day 0 and 1 U/kg of bleomycin on days 14, 28, 42 and 56 via oropharyngeal aspiration while under anesthesia. At day 70, 14 days after the final bleomycin insult, precision cut lung slices were obtained. Following euthanization, 2% low gelling temp agarose was injected into the mouse lungs via the trachea. […] The lobes were then subjected to precision slicing to obtain samples for culture using a microtome (Compresstome VF-300-0Z, Precisionary; Greenville, N.C.). Individual slices were distributed in a multiwell culture plate and cultured for 7 days under control (DMSO) and test compound conditions. The viability of the slices over the course of culturing was confirmed by WST-1 assay of mitochondrial activity.
During the culture period, slices in the control group were treated with DMSO and slices in the test group were treated with a DMSO solution of one of: the selective antibody αvβ6 inhibitor 3G9; the αvβ1-selective small molecule inhibitor; a combination of the selective antibody αvβ6 inhibitor 3G9 and the αvβ1-selective small molecule inhibitor; compound 5; and the small molecule ALK5 inhibitor. The selective αvβ1 and αvβ6 integrin inhibitors were analyzed at ≥their respective IC90 concentrations for inhibition of TGF-beta activation. […]

Consider `COCCN(CCCCc1ccc2c(n1)NCCC2)CC[C@H](Nc1ncnc2ccccc12)C(=O)O` [Compound 5, (S)-4-((2-methoxyethyl) (4-(5,6,7,8-tetrahydro-1,8-naphthyridin-2-yl)butyl)amino)-2-(quinazolin-4-ylamino) butanoic acid], for which, in data set [1] (80 mg QD), the highest level (Cmax) was 1510 ng/mL, the AUC(0-t) turned out to be 25400 ng·h/mL and the time of peak concentration (Tmax) was found to be 6 h. Moreover, in data set [1] (160 mg QD), the Cmax is 2990 ng/mL, the AUC(0-t) came to 49900 ng·h/mL and the Tmax is 5 h. Moreover, in the data set with lung Col1a1 expression, the “lung Col1a1 expression” value is “decreased lung Col1a1 expression substantially”.

The values above are taken from US20230028658A1, “EXPANDED DOSAGE REGIMENS FOR INTEGRIN INHIBITORS” (Pliant Therapeutics, Inc., priority 2021, published 2023).
